≈ marks a conversion by molar mass, not a printed value. Entries after “also recorded” stand apart in the source; their conditions may differ. Like-named read-outs stand apart in the source and are kept apart here. Each block holds one molecule with its values, some of them ahead of it.
Tests used:
[1] = Dynamic vapor sorption (moisture sorption) experiment; assay type: physicochemical; conditions: for XRPD (post DVS): form by XRPD after moisture sorption, sample dried at 60° C. and 0% RH; for % wt change at 60% RH: moisture adsorbed at 60% RH; for % wt change at 90% RH: moisture adsorbed at 90% RH
[2] = Stability study under thermal stress (oven at 60° C. for 7 days); assay type: physicochemical; conditions: for XRPD pattern / stability after thermal stress: 60° C. for 7 days
Description: Forms A, B, and D were stored in an oven maintained at 60° C. for 7 days.

[3] = TG-IR experiment monitoring potential release of hydrogen chloride; assay type: physicochemical; conditions: heated at 20° C./minute to approximately 140° C.; listed as pure Form B
Description: Thermogravimetric infrared (TG-IR) analysis was performed on a TA Instruments Q5000 IR thermogravimetric (TG) analyzer interfaced to a Magna-IR 560® Fourier transform infrared (FT-IR) spectrophotometer (Thermo Nicolet) equipped with an Ever-Glo mid/far IR source, a potassium bromide (KBr) beamsplitter, and a mercury cadmium telluride (MCT-A) detector. The FT-IR wavelength verification was performed using polystyrene, and the TG calibration standards were nickel and Alumel™. The sample was placed in a platinum sample pan and the pan was inserted into the TG furnace. The TG instrument was started first, immediately followed by the FT-IR instrument. The TG instrument was operated under a flow of helium at 90 and 10 cc/minute for the purge and balance, respectively. The furnace was heated under helium at a rate of 20° C./minute to a final temperature of approximately 140° C. IR spectra were collected approximately every 32 seconds for approximately 7.5 minutes. Each IR spectrum represents 32 co-added scans collected at a spectral resolution of 4 cm-1. Volatiles were identified from a search of the High Resolution Nicolet Vapor Phase spectral library. […]

[4] = Six-month stability study at 40° C./75% RH; assay type: physicochemical
Description: (§1) Form B was stored at 25° C./60% RH for twelve months and at 40° C./75% RH for six months.

[5] = Twelve-month stability study at 25° C./60% RH; assay type: physicochemical; conditions: for Appearance / HPLC Purity / Moisture (%) / XRPD: 25° C./60% RH
Description: as §1

[6] = test system: RB phosphorylation; conditions: in vitro and in vivo; cited from earlier work
[7] = test system: CDK4/6-dependent tumorigenic cell lines including breast, melanoma, leukemia, and lymphoma cells; conditions: variety of CDK4/6-dependent tumorigenic cell lines; cited from earlier work
[8] = Phase 1a toxicity trial in 75 women; assay type: in vivo, human
[9] = Solubility estimate by aliquot addition with visual observation; assay type: physicochemical; conditions: thermodynamic from solid
Description: Solubility estimates of impure Form B were attempted in various predominantly HCl acidic aqueous acetone solvent mixtures using an aliquot addition method that involved visual observation. Aliquots of various solvents or diluent/organic solvent mixtures were added to measured amounts of impure Form B with agitation (typically sonication) at ambient temperature until complete dissolution was achieved, as judged by visual observation. Solubilities were calculated based on the total solvent used to give a solution; actual solubilities may be greater because of the volume of solvent portions utilized or a slow rate of dissolution. […] If dissolution occurred at the first aliquot, the value was reported as “>”. Due to the haziness of the obtained samples, effective solubility estimates were difficult to discern.

- stability in the moisture sorption experiment [1]: unstable; also recorded: not stable
- XRPD (post DVS) [1]: Form K
- % wt change at 60% RH [1]: 14.9 wt %
- % wt change at 90% RH [1]: 15.8 wt %
SMILES: CC(C)N1CCN(c2ccc(Nc3ncc4cc5n(c4n3)C3(CCCCC3)CNC5=O)nc2)CC1 [Form A]
- XRPD pattern / stability after thermal stress [2]: A new pattern; also recorded: converted to a new Form
- XRPD after equilibrium at room temperature ([2]; three further days at room temperature after 60° C. for 7 days): converted back to Form A; also recorded: changed back to Form A

- Appearance ([4]; 0 M): Yellow solid
- HPLC Purity ([4]; 0 M): 99.5%
- Moisture (%) ([4]; 0 M): 4.9%
- XRPD ([4]; 0 M): Form B
- Appearance ([4]; 1 M): Yellow solid
- HPLC Purity ([4]; 1 M): 99.5%
- Moisture (%) ([4]; 1 M): 2.75%
- Appearance ([4]; 3 M): Yellow solid
- HPLC Purity ([4]; 3 M): 99.5%
- Moisture (%) ([4]; 3 M): 7.47%
- XRPD ([4]; 3 M): Form B
- Appearance ([4]; 6 M): Yellow solid
- HPLC Purity ([4]; 6 M): 99.5%
- Moisture (%) ([4]; 6 M): 7.53%
- stability in the moisture sorption experiment [1]: stable
- % wt change at 60% RH [1]: 5.8 wt %
- % wt change at 90% RH [1]: 5.9 wt %
- time stable in long-term stability study ([5]; 25° C. and 60% relative humidity): at least 1 year
- Appearance ([5]; 0 M): Yellow
- HPLC Purity ([5]; 0 M): 99.5%
- Moisture (%) ([5]; 0 M): 4.9%
- XRPD ([5]; 0 M): Form B
- Appearance ([5]; 3 M): Yellow solid
- HPLC Purity ([5]; 3 M): 99.5%
- Moisture (%) ([5]; 3 M): 4.07%
- Appearance ([5]; 6 M): Yellow
- HPLC Purity ([5]; 6 M): 99.5%
- Moisture (%) ([5]; 6 M): 7.53%
- Appearance ([5]; 9 M): Yellow solid
- HPLC Purity ([5]; 9 M): 99.6%
- Moisture (%) ([5]; 9 M): 7.29%
- Appearance ([5]; 12 M): Yellow
- HPLC Purity ([5]; 12 M): 99.5%
- Moisture (%) ([5]; 12 M): 7.48%
SMILES: CC(C)N1CCN(c2ccc(Nc3ncc4cc5n(c4n3)C3(CCCCC3)CNC5=O)nc2)CC1 [Form B]
- volatiles released during TG-IR [3]: only water, and no hydrogen chloride, was released
- XRPD ([4]; 6 M): conformed to the reference spectrum; also recorded: Form B
- XRPD (post DVS) [1]: remained in Form B; also recorded: remained unchanged as Form B
- XRPD ([5]; 12 M): conformed to the reference spectrum; also recorded: Form B
- XRPD pattern / stability after thermal stress [2]: stable; also recorded: No change; also recorded: remained unchanged

- XRPD pattern / stability after thermal stress [2]: remained unchanged
SMILES: CC(C)N1CCN(c2ccc(Nc3ncc4cc5n(c4n3)C3(CCCCC3)CNC5=O)nc2)CC1 [Form C]

- stability in the moisture sorption experiment [1]: unstable; also recorded: not stable
- XRPD (post DVS) [1]: Form K
- % wt change at 60% RH [1]: 4.4 wt %
- XRPD pattern / stability after thermal stress [2]: No change
SMILES: CC(C)N1CCN(c2ccc(Nc3ncc4cc5n(c4n3)C3(CCCCC3)CNC5=O)nc2)CC1 [Form D]

SMILES: CC(C)N1CCN(c2ccc(Nc3ncc4cc5n(c4n3)C3(CCCCC3)CNC5=O)nc2)CC1 [Form G1T38, 2′-((5-(4-isopropylpiperazin-1-yl)pyridin-2-yl)amino)-7′,8′-dihydro-6′H-spiro[cyclohexane-1,9′-pyrazino[1′,2′:1,5]pyrrolo[2,3-d]pyrimidin]-6′-one]
- inhibition of RB phosphorylation [6]: inhibits RB phosphorylation
- inhibition of cell proliferation [7]: induces inhibition of cell proliferation
- tolerability [8]: well tolerated with no significant adverse events

- solubility ([9]; aqueous buffer, 2.0M HCl, ambient, read-out: Solubility): 4000 µg/mL (≈ 8.43 mM)
- solubility ([9]; aqueous buffer, 5.0M HCl, ambient, read-out: Solubility): 3000 µg/mL (≈ 6.32 mM)
- solubility ([9]; aqueous buffer, 5.0M HCl:water 1:2, ambient, read-out: Solubility): 7000 µg/mL (≈ 14.7 mM)
- solubility ([9]; aqueous with cosolvent or surfactant or cyclodextrin, 1M HCl:acetone 50:50, ambient, read-out: Solubility): 4000 µg/mL (≈ 8.43 mM)
- solubility ([9]; aqueous with cosolvent or surfactant or cyclodextrin, 1M HCl:acetone 60:40, ambient, read-out: Solubility): 4000 µg/mL (≈ 8.43 mM)
- solubility ([9]; aqueous with cosolvent or surfactant or cyclodextrin, 1M HCl:acetone 67:33, ambient, read-out: Solubility): 6000 µg/mL (≈ 12.6 mM)
- solubility ([9]; aqueous with cosolvent or surfactant or cyclodextrin, 1.0M HCl:acetone 75:25, ambient, read-out: Solubility): 7000 µg/mL (≈ 14.7 mM)
- solubility ([9]; aqueous with cosolvent or surfactant or cyclodextrin, predominantly HCl acidic aqueous acetone solvent mixtures, ambient temperature, read-out: solubility in the tested solvent mixtures): 3000 to 7000 µg/mL (≈ 6.32 to 14.7 mM)
- solubility ([9]; organic solvent or mixture, 0.1M HCl:acetone 20:80, ambient, read-out: Solubility): < 1000 µg/mL
- solubility ([9]; organic solvent or mixture, 0.5M HCl:acetone 10:90, ambient, read-out: Solubility): < 1000 µg/mL
- solubility ([9]; organic solvent or mixture, 0.5M HCl:acetone 20:80, ambient, read-out: Solubility): < 1000 µg/mL
- solubility ([9]; organic solvent or mixture, 1M HCl:acetone 5:95, ambient, read-out: Solubility): < 1000 µg/mL
- solubility ([9]; organic solvent or mixture, 1M HCl:acetone 10:90, ambient, read-out: Solubility): < 1000 µg/mL
- solubility ([9]; organic solvent or mixture, 1M HCl:acetone 20:80, ambient, read-out: Solubility): < 1000 µg/mL
- solubility ([9]; organic solvent or mixture, 1M HCl:acetone 33:67, ambient, read-out: Solubility): 2000 µg/mL (≈ 4.21 mM)
- solubility ([9]; organic solvent or mixture, Water:acetone 1:2, ambient, read-out: Solubility): 3000 µg/mL (≈ 6.32 mM)
- solubility ([9]; Water, ambient, read-out: Solubility): < 7000 µg/mL
- solubility ([9]; water:acetone 3:1, aqueous with cosolvent or surfactant or cyclodextrin, Water:cetone 3:1, ambient, read-out: Solubility): < 3000 µg/mL
SMILES: CC(C)N1CCN(c2ccc(Nc3ncc4cc5n(c4n3)C3(CCCCC3)CNC5=O)nc2)CC1 [Impure Form B]

— US11261193B2, “Morphic forms of G1T38 and methods of manufacture thereof” (G1 Therapeutics, Inc., priority 2017, dated 2022)
